The target in data set [1] is T1, MDM2-N (Homo sapiens, UniProt Q00987). The experiment in a line: Fluorescence polarization (FP) competition assay with p53-F. As to conditions: read-out: FP % inhibition at 700 μM; compound 700 μM; MDM2-N 500 nM; p53-F 2 nM. Type of data set: binding. As to the method:
Fluorescence polarization experiments were performed with a LJL Biosystems Analyst multi-plate reader in 50mM HEPES pH 7.5, 100mM NaCl, 1mM DTT. Fluorescein labelled p53 peptide (p53-F) was synthesised by Biomatiks. […] The competition experiments were carried out by mixing MDM2-N (500nM), p53-F (2nM) and test compound in black NBS plate. […] The inhibition (%) was calculated using the equation below. %Inhibition=100(AF-AL)/(AF-AU) Where: AF is the anisotropy of fully bound p53-F.
AU is the anisotropy of unbound p53-F.
AL is the anisotropy of p53-F in the presence of MDM2-N + compound.
(Polarisation of emitted light reports the rotation of a fluorescent probe.)

Data set [2] addresses T1, MDM2-N. In words: Competitive capillary electrophoresis (CE) assay, compound vs fluorescently labelled p53 peptide (p53-F). Type of data set: binding. As to conditions: for inhibition at 300 µM: read-out: CE % inhibition at 300 μM; for activity in the assays: CE and FP screening assays. The method, then:
Capillary electrophoresis (CE) is an analytical technique used to study the interaction between biomacromolecules. In CE, electrophoresis is carried out in the interior of a narrow capillary. The technique separates ions based on their electrophoretic mobility with the use of applied voltage. The electrophoretic mobility is dependent on the charge of the molecule, the viscosity and the molecular size. CE is performed using a high voltage to produce a high resolution profile with a short migration time to separate numerous analytes. […] The assay provides a high sensitivity through the use of a Laser Induced Fluorescence (LIF) detector to enable the detection of weak binding fragments. This enables the interaction assay to be performed with a low labelled probe concentration and allows compounds to be screened at low concentrations. A competitive CE assay was used to detect competition between compounds and fluorescently labelled p53 peptide (p53-F) in MDM2-N/p53 binding site. The injection sample contained carboxyfluorescein (internal standard (10pM)) and p53-F (500pM) in TAPS/Tris (1mM) pH 8.0, DTT (1mM). […] After injection of the sample, a voltage of 10kV was applied and separation was carried out for 6.5min.
TR is the migration time of p53-F peak.
TL is the migration time of p53-F peak in the presence of MDM2-N + compound.

Data set [3] is described as follows: Solubility of the fragments in assay buffer. As to conditions: aqueous buffer, read-out: Estimated solubility limit. Type of data set: physicochemical. The source says: Supplement pone.0121424.s006.docx, table 5 | column: Estimated solubility limit
A further data set relates to MDM2. To be noted: read-out: literature IC50 value for racemic Nutlin-3; cited from earlier work.

What is called inhibition is the change of the read-out against control, counted positive when it falls. As a reminder, the solubility is how much of the substance goes into solution per volume. What is called IC50 is the concentration that inhibits the measured activity by half.

In brackets after ≈: the same amount, converted by molar mass.

Turning to `O=C(NCc1ccccc1)N(c1ccccc1)c1ccccc1` [Compound 19], the inhibition at 700 µM on MDM2-N [1] came to 18%. Further, the inhibition at 300 µM at MDM2-N [2] came to 42%.
Turning to `CCn1c(=O)c2c(nc(-n3nc(C)cc3C)n2Cc2ccc(F)cc2)n(C)c1=O` [Compound 25], the “activity in the assays” value on MDM2-N [2] is “inactive”.
The same measure, in the same setting: the entry for `CC1CCN(c2nc3c(c(=O)n(C)c(=O)n3C)n2CC(=O)c2ccccc2)CC1` [Compound 26] is “inactive”.
As to `O=C1N[C@@](O)(c2ccccc2)c2ccccc21` [Compound 39], the inhibition at 700 µM at MDM2-N [1] was found to be 13%. For the same compound, the inhibition at 300 µM at MDM2-N [2] was 40%.
As to `O=C1Cc2ccccc2N1` [Compound 40], the inhibition at 700 µM at MDM2-N [1] turned out to be 8%. In data set [3], the solubility is > 2000 µM. The inhibition at 300 µM at MDM2-N [2] was found to be 28%.
For `Oc1cccc(Nc2ccccc2)c1` [Compound 41] the same measures were 31%, 250 to 500 µM (≈ 46.3 to 92.6 µg/mL) and 66%.
For `Oc1ccc(Nc2ccccc2)cc1` [Compound 42] the same measures were 60%, 250 to 500 µM (≈ 46.3 to 92.6 µg/mL) and 52%.
Consider `c1ccc(Nc2ccccc2)cc1` [Compound 43], for which, at MDM2-N [1], the inhibition at 700 µM was determined as 33%. Moreover, in data set [3], the solubility was 250 to 500 µM (≈ 42.3 to 84.6 µg/mL). In addition, on MDM2-N [2], the inhibition at 300 µM is 36%.
For `Nc1ccc(Nc2ccccc2)cc1` [Compound 44] the same measures were 8%, 62.5 to 125 µM (≈ 11.5 to 23 µg/mL) and 30%.
With `O=C(O)c1ccccc1Nc1ccccc1` [Compound 45], the solubility in data set [3] was > 1000 µM.
Regarding `COc1ccc(C2=N[C@@H](c3ccc(Cl)cc3)[C@@H](c3ccc(Cl)cc3)N2C(=O)N2CCNC(=O)C2)c(OC(C)C)c1` [Nutlin-3], the IC50 in the data set on MDM2 is […].

Values taken from paper PMC4401541, “Structure- and Ligand-Based Virtual Screening Identifies New Scaffolds for Inhibitors of the Oncoprotein MDM2” (PLoS ONE, 2015).
